According to ChEMBL document CHEMBL2034837, “Discovery of Natural Phenols as G Protein-Coupled Receptor-35 (GPR35) Agonists” (ACS Med Chem Lett, 2012):
Calls of active or inactive are those of the source. The rule behind the calls is not given here.

Experiments:
[1] = biological target: T1, G-protein coupled receptor 35 (Homo sapiens, UniProt Q9HC97); test: Agonist activity at GPR35 receptor in human HT-29 cells assessed as shift in resonant wavelength of biosensor stimulation after 10 mins by dynamic mass redistribution assay relative to control; type: functional, cell-based
T1 sequence (Q9HC97 whole entry): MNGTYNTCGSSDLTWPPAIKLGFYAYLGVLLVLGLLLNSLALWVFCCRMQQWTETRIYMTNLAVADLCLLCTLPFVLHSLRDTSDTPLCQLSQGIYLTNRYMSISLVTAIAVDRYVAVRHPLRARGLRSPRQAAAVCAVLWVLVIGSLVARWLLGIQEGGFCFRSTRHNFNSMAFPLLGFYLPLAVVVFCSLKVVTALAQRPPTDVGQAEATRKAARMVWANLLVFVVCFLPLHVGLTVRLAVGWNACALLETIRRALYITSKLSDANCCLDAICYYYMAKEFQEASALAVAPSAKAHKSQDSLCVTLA

[2] = biological target: T1, G-protein coupled receptor 35; test: Agonist activity at GPR35 receptor in human HT-29 cells after 10 mins by dynamic mass redistribution assay; type: functional, cell-based
[3] = biological target: T1, G-protein coupled receptor 35; test: Desensitization of GPR35 receptor in human HT-29 cells assessed as inhibition of zaprinast-induced dynamic mass redistribution after 10 mins; type: cell-based
[4] = biological target: T1, G-protein coupled receptor 35; test: Agonist activity at GPR35 receptor in human HT-29 cells at 8 uM after 10 mins by dynamic mass redistribution assay in the presence of SPB05142; type: functional, cell-based
[5] = biological target: T1, G-protein coupled receptor 35; test: Agonist activity at GPR35 receptor in human U2OS cells coexpressing Gal4-VP16-TEV assessed as beta arrestin translocation after 5 hrs by beta lactamase reporter gene assay; type: functional, cell-based
[6] = biological target: T1, G-protein coupled receptor 35; test: Agonist activity at GPR35 receptor in human U2OS cells coexpressing Gal4-VP16-TEV assessed as beta arrestin translocation after 5 hrs by beta lactamase reporter gene assay relative to control; type: functional, cell-based
[7] = biological target: T1, G-protein coupled receptor 35; test: Agonist activity at GPR35 receptor in human HT-29 cells at 32 uM after 10 mins by dynamic mass redistribution assay in the presence of SPB05142; type: functional, cell-based
[8] = biological target: T1, G-protein coupled receptor 35; test: Partial agonist activity at GPR35 receptor in human U2OS cells coexpressing Gal4-VP16-TEV assessed as beta arrestin translocation after 5 hrs by beta lactamase reporter gene assay; type: functional, cell-based
[9] = biological target: T1, G-protein coupled receptor 35; test: Partial agonist activity at GPR35 receptor in human HT-29 cells after 10 mins by dynamic mass redistribution assay; type: functional, cell-based
[10] = biological target: T1, G-protein coupled receptor 35; test: Agonist activity at GPR35 receptor in human HT-29 cells at 2 uM after 10 mins by dynamic mass redistribution assay in the presence of SPB05142; type: functional, cell-based
[11] = biological target: T1, G-protein coupled receptor 35; test: Agonist activity at GPR35 receptor in human HT-29 cells at 16 uM after 10 mins by dynamic mass redistribution assay in the presence of SPB05142; type: functional, cell-based
[12] = biological target: T1, G-protein coupled receptor 35; test: Agonist activity at GPR35 receptor in human HT-29 cells at 4 uM after 10 mins by dynamic mass redistribution assay in the presence of SPB05142; type: functional, cell-based

SMILES	Efficacy [1] [picometer]	EC50 [2] [µM]	IC50 [3] [µM]	Activity [4]	EC50 [5] [µM]	Ratio [6]	Activity [7]	Activity [2]	Activity [3]	Activity [8]	Activity [9]	Activity [10]	Activity [11]	Activity [12]
CCCOc1ccccc1-c1nc2[nH]nnc2c(=O)[nH]1	269	–	–	–	–	–	–	–	–	–	–	–	–	–
O=c1c(O)c(-c2ccc(O)cc2O)oc2cc(O)cc(O)c12 [MORIN]	284	1.33	1.6	inactive	11.2	9.8	–	–	–	–	–	–	–	–
O=C(O)c1cccnc1Nc1cccc(C(F)(F)F)c1	260	–	–	–	–	–	inactive	Dose-dependent effect	Dose-dependent effect	Active	–	–	–	–
O=c1cc(-c2ccc(O)c(O)c2)oc2cc(O)cc(O)c12 [LUTEOLIN]	68	7.24	18.6	–	3.2	1.5	inactive	–	–	Active	Active	–	–	–
O=c1oc2c(O)c(O)cc3c(=O)oc4c(O)c(O)cc1c4c23 [ELLAGIC ACID]	319	0.11	0.1	–	2.96	3.4	–	–	–	–	–	inactive	–	–
O=c1c(O)c(-c2ccc(O)c(O)c2)oc2cc(O)cc(O)c12 [QUERCETIN]	40	8.02	15.4	–	5.93	2.3	inactive	–	–	–	Active	–	–	–
CCCCCc1c2c(cc(O)c1C(=O)O)OC(=O)c1c(cc(OC)cc1C(=O)CCCC)O2 [LOBARIC ACID]	317	2.39	4.54	–	17.6	2	–	–	–	–	–	–	inactive	–
O=C1C=C2CC3(O)COc4c(ccc(O)c4O)C3=C2C=C1O (stereo unspecified) [HEMATEIN]	391	11.1	30.4	–	4.7	2.1	–	–	–	–	–	–	inactive	–
Cc1c(C(=O)O)sc2c(Br)csc12	283	–	–	–	17.6	13.9	–	–	–	–	–	–	–	–
O=C(O)c1cc(O)c(=O)c2c(O)c(O)ccc2c1 [7-DESHYDROXYPYROGALLIN-4-CARBOXYLIC ACID]	233	0.054	0.11	–	12.4	10.9	–	–	–	–	–	–	–	inactive
N#C/C(=C\c1ccc(O)cc1)C(=O)O [alpha-CYANO-4-HYDROXYCINNAMIC ACID]	331	9.8	30.4	inactive	70.7	4	–	–	–	–	–	–	–	–
CC(C)=CCC1=C(O)C(=O)c2ccccc2C1=O [LAPACHOL]	328	2.84	4.66	inactive	47.9	8.7	–	–	–	–	–	–	–	–
O=c1c(O)c(-c2cc(O)c(O)c(O)c2)oc2cc(O)cc(O)c12 [MYRICETIN]	224	3.02	2.12	inactive	14.7	9.2	–	–	–	–	Active	–	–	–
O=c1cc(-c2ccccc2)oc2cc(O)c(O)c(O)c12 [BAICALEIN]	248	10.3	28.2	–	22.7	2.1	inactive	–	–	Active	–	–	–	–
CC(=O)NCCc1ccc(O)c(-c2c(O)c(O)c3c(c2O)C(=O)c2c(cc(O)c(C(=O)O)c2C(=O)O)C3=O)c1 [LACCACID ACID A]	263	0.39	0.39	–	51.5	3.5	inactive	–	–	–	–	–	–	–
